# Values of other authors in patent US9206466B2, “Compositions and methods for regulating peptidyltransferase activity and uses thereof” (University of Maryland, priority 2004, dated 2015).
# How the values were obtained:
# killer virus = details: yeast; Dinman et al., 1997
# −1 PRF = details: yeast; Dinman et al., 1997
structure (smiles),measurement,setting,value
CSC[S@+]([O-])C[C@H](CO)NC(=O)/C=C/c1c(C)[nH]c(=O)[nH]c1=O [sparsomycin],maintenance of the killer virus,killer virus,loss of the killer virus
same,−1 PRF efficiencies,−1 PRF,promoted increased −1 PRF efficiencies
